Test results: patent publication US20060088882A1, “Methods for the treatment or prevention of obesity” (priority 2002, published 2006)

What was measured:
VEGFR2 = VEGFR2 (Homo sapiens, UniProt P35968); details: cited from earlier work
VEGFR1 = VEGFR1 (Homo sapiens, UniProt P17948); details: cited from earlier work
preadipocytes [1] = details: exogenous VEGF added to culture media, doses as high as 100 ng/ml; MTT assay
Procedure: For proliferation assays, 500 preadipocytes and fibroblasts were plated in 96 well plates, and mouse recombinant VEGF164 (50 ng/ml) and PBS were added (FIG. 7B). An MTT assay was performed at day 4, when the cells were still subconfluent in all wells. Culture media were changed with 100 μl of fresh media, and 10 μl of sterile tetrazolium salt, MTT (3[4,5-dimethylthiazol-2-yl]-2,5-diphenyl-tetrazolium bromide, Sigma) was added in each well and incubated for four hours at 37° C. Finally, 100 μl of 10% SDS were added, and after incubation at 37° C. overnight, the plate was read at 490 nm. The optical density values were normalized to that of the PBS treated cells and used as a measure of viability.
For MTT assays, mouse recombinant VEGF (50 ng/ml) and PBS, and rat IgG (1 μg/ml) were used. MTT assay was performed at day 4. The optical density values were normalized to that of the PBS treated cells and were used as a measure of viability (FIGS. 8B and 8C). MTT assay for preadipocytes after four days of culture with endothelial conditioned media. “FBS” denotes non-conditioned culture media with 10% FBS; “SN” denotes supernatant, endothelial conditioned media cultured with 10% FBS but no other additives; “SN/VEGF/IgG” denotes endothelial conditioned media cultured with 10% FBS, VEGF (50 ng/ml) and non-specific IgG (5 μg/ml). Data are normalized to the control condition (FBS). […]

3T3-F442A preadipocytes = test: In vitro differentiation of 3T3-F442A preadipocytes (Oil Red O staining); type: cell-based, mouse
Procedure: FIGS. 5A-5C are pictures of preadipocyte differentiation. FIG. 5A is a transillumination image of differentiated adipocytes in vitro. FIG. 5B is a fluorescence image of differentiated adipocytes in vivo. FIG. 5C is a picture showing the effect of PPARγ inhibition on adipogenesis. Preadipocytes (1×10^5 cells) were plated in a 6-well plate and transfected at a multiplicity of infection of 10^4 plaque forming units/cell using mock- (upper panels) or PPARγ-DN adenovirus (lower panels) and differentiation was promoted by using media containing 10% FBS.
FIG. 7A and 7B illustrate the effect of VEGF on preadipocyte differentiation and proliferation. To investigate the effects of VEGF on the in vitro differentiation of preadipocytes, 3T3-F442A cells were grown to confluence in media supplemented with calf serum (FCS, maintenance media), and exposed to increasing concentrations of murine recombinant VEGF164 (R&D Systems, Minneapolis, Minn.) from 0-100 ng/ml. […] Adipocyte differentiation was assessed by Oil Red O staining.
The bar indicates 50 μm. […] MTT assay was performed at day 4. […] Data are normalized to the control condition (FBS). Error bars represent standard error.
VEGFR2 expression was undetectable in the preadipocytes.

preadipocytes [2] = details: conditioned media from endothelial cells cultured in the presence of VEGF and IgG; MTT assay
Procedure: For MTT assays, mouse recombinant VEGF (50 ng/ml) and PBS, and rat IgG (1 μg/ml) were used. MTT assay was performed at day 4. The optical density values were normalized to that of the PBS treated cells and were used as a measure of viability (FIGS. 8B and 8C). MTT assay for preadipocytes after four days of culture with endothelial conditioned media. “FBS” denotes non-conditioned culture media with 10% FBS; “SN” denotes supernatant, endothelial conditioned media cultured with 10% FBS but no other additives; “SN/VEGF/IgG” denotes endothelial conditioned media cultured with 10% FBS, VEGF (50 ng/ml) and non-specific IgG (5 μg/ml). Data are normalized to the control condition (FBS). Error bars represent standard error.
To assess the paracrine effects of VEGF on cell proliferation, preadipocytes were plated as described for FIG. 8B with conditioned media from endothelial cells cultured in the presence of VEGF and IgG. At day 5, the assay was perform as described, and the optical density for the cells cultured in non-conditioned media was used as a measure of viability.

preadipocytes [3] = details: conditioned media from endothelial cells cultured in the presence of VEGF (50 ng/ml); day 11; normalized to SN control
Excerpt: Error bars represent standard error.
The media was changed every other day.

VEGFR2, sequence (P35968 20-1356, species assumed): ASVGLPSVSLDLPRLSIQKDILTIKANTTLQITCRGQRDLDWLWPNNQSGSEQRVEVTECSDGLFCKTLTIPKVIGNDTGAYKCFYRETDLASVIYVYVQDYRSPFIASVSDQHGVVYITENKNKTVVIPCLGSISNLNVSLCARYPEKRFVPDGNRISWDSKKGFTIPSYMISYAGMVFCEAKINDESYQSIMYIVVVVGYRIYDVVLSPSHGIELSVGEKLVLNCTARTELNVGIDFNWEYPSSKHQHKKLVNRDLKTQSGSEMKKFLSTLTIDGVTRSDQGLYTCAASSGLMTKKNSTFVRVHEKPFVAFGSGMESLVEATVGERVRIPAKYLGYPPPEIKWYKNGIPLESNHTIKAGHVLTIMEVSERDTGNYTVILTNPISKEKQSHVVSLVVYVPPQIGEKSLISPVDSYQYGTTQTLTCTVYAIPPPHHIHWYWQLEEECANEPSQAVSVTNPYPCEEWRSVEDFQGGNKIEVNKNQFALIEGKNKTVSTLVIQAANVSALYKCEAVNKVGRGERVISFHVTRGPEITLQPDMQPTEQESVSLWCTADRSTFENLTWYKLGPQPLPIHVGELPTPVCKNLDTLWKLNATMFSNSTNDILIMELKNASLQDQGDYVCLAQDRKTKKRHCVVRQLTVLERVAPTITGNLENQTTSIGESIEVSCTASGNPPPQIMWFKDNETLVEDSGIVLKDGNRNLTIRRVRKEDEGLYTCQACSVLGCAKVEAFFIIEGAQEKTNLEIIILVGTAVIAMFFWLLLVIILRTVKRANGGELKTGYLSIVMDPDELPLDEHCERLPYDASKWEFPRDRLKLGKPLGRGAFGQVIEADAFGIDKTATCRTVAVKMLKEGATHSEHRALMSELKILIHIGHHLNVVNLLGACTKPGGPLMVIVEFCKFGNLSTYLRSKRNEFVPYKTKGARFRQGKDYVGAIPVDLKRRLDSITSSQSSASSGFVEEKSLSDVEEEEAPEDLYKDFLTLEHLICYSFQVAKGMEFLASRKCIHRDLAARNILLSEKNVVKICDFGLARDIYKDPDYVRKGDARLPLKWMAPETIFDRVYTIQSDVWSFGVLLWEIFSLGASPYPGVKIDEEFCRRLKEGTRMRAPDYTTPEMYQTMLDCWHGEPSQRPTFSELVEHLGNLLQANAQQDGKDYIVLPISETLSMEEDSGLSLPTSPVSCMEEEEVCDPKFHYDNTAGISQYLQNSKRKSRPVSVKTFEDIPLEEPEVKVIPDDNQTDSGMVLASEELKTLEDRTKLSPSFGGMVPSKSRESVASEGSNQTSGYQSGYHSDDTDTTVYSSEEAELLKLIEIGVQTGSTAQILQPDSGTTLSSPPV
VEGFR1, sequence (P17948 27-1338, species assumed): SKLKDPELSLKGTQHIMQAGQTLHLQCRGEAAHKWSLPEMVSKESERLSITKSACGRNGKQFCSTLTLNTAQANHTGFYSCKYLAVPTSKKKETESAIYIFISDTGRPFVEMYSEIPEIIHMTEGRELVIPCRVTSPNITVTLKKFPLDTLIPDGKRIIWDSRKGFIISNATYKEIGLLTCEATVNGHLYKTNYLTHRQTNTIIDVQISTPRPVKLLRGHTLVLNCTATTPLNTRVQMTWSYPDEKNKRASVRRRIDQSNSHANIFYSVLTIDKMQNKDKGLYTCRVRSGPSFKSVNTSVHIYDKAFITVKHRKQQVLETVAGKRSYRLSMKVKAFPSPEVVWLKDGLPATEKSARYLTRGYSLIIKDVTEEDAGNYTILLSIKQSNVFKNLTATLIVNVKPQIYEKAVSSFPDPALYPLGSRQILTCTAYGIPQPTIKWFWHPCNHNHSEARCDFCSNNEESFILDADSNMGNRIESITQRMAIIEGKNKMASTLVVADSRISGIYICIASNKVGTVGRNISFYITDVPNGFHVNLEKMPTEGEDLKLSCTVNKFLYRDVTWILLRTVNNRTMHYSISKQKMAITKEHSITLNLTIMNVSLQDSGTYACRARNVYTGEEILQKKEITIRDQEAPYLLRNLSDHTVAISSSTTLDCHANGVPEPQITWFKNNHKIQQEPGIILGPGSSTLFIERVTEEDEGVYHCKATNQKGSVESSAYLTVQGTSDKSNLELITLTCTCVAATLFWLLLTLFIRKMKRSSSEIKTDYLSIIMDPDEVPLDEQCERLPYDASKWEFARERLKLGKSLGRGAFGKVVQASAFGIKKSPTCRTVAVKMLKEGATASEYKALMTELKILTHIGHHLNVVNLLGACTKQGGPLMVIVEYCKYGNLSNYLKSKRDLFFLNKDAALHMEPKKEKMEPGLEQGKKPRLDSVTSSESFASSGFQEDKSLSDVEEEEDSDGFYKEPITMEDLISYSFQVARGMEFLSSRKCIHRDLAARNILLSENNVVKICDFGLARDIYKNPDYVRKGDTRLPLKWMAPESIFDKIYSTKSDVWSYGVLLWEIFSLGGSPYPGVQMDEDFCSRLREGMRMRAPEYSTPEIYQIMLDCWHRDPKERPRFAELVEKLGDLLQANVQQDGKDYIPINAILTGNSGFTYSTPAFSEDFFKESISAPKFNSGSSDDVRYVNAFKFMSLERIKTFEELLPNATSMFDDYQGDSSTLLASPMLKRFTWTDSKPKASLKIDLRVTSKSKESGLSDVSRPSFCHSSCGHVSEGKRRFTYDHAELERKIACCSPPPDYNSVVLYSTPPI

| Compound | inhibition of VEGFR2 (VEGFR2) | inhibition of VEGFR1 (VEGFR1) | adipose cell proliferation and survival in vitro (preadipocytes [1]) | differentiation rate of preadipocytes (3T3-F442A preadipocytes; differentiation media (10% FBS), VEGF 0-100 ng/ml or 50 ng/ml, Oil Red O staining) | adipose cell differentiation in vitro (3T3-F442A preadipocytes; exogenous VEGF added to culture media, doses as high as 100 ng/ml) | induction of differentiation in preadipocytes (3T3-F442A preadipocytes; maintenance media (10% calf serum), VEGF 0-100 ng/ml or 50 ng/ml, Oil Red O staining) | preadipocyte survival/proliferation (preadipocytes [2]) | aP2 expression (differentiation of preadipocytes) (preadipocytes [3]) |
| --- | --- | --- | --- | --- | --- | --- | --- | --- |
| CCCNC(=O)Nc1ccc(Oc2ncnc3cc(OC)c(OC)cc23)cc1Cl [KRN633] | inhibits | inhibits | – | – | – | – | – | – |
| VEGF | – | – | not significantly affected | did not increase the differentiation rate | not significantly affected | did not induce differentiation | increased preadipocyte survival/proliferation | almost three-fold increase |
